Test results taken from PubChem BioAssay (NCI).
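48-hour exposure; five concentrations; linearly interpolated endpoints. TGI denotes the concentration required for complete inhibition of growth.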

Columns and labels:
Test in all cases: NCI-60 cell line screen, 48 h
[1] = tested on: 786-0 renal
[2] = tested on: A498 renal
[3] = tested on: A549 NSCLC
[4] = tested on: ACHN renal
[5] = tested on: BT-549 breast
[6] = tested on: CAKI-1 renal
[7] = tested on: CCRF-CEM leukemia
[8] = tested on: COLO 205 colon
[9] = tested on: DU-145 prostate
[10] = tested on: EKVX NSCLC
[11] = tested on: HCC-2998 colon
[12] = tested on: HCT-116 colon
[13] = tested on: HCT-15 colon
[14] = tested on: HL-60(TB) leukemia
[15] = tested on: HOP-62 NSCLC
[16] = tested on: HOP-92 NSCLC
[17] = tested on: HS 578T breast
[18] = tested on: HT29 colon
[19] = tested on: IGROV1 ovarian
[20] = tested on: K-562 leukemia
[21] = tested on: KM12 colon
[22] = tested on: LOX IMVI melanoma
[23] = tested on: M14 melanoma
[24] = tested on: MALME-3M melanoma
[25] = tested on: MCF7 breast
[26] = tested on: MDA-MB-231 breast
[27] = tested on: MDA-MB-435
[28] = tested on: MDA-N
[29] = tested on: MOLT-4 leukemia
[30] = tested on: NCI-H226 lung
[31] = tested on: NCI-H23 lung
[32] = tested on: NCI-H460 lung
[33] = tested on: NCI-H522 lung
[34] = tested on: NCI/ADR-RES ovarian
[35] = tested on: OVCAR-3 ovarian
[36] = tested on: OVCAR-4 ovarian
[37] = tested on: OVCAR-5 ovarian
[38] = tested on: OVCAR-8 ovarian
[39] = tested on: PC-3 prostate
[40] = tested on: RPMI-8226 leukemia
[41] = tested on: RXF 393 renal
[42] = tested on: SF-268 CNS
[43] = tested on: SF-295 CNS
[44] = tested on: SK-MEL-2 melanoma
[45] = tested on: SK-MEL-28 melanoma
[46] = tested on: SK-MEL-5 melanoma
[47] = tested on: SK-OV-3 ovarian
[48] = tested on: SNB-19 CNS
[49] = tested on: SNB-75 CNS
[50] = tested on: SW-620 colon
[51] = tested on: TK-10 renal
[52] = tested on: U251 CNS
[53] = tested on: UACC-257 melanoma
[54] = tested on: UACC-62 melanoma
[55] = tested on: UO-31 renal
[56] = tested on: SF-539 CNS
[57] = tested on: SN12C renal
[58] = tested on: SR leukemia

In the case of `COc1ccc(-c2csc(-n3c(-c4ccccc4)nc4c(Br)cc(Br)cc4c3=O)n2)cc1`, the TGI [1] is reported as 54.4 µM, the TGI [2] is reported as 65.9 µM and the TGI [3] is reported as greater than 100 µM. It also gave a TGI [4] greater than 100 µM, a TGI [5] of 88.8 µM and a TGI [6] greater than 100 µM. The TGI [7] was 43.6 µM, the TGI [8] was greater than 100 µM and the TGI [9] was greater than 100 µM. It also gave a TGI [10] of 35.1 µM, a TGI [11] greater than 100 µM and a TGI [12] of 77.1 µM. The TGI [13] was greater than 100 µM, the TGI [14] was 49 µM and the TGI [15] was greater than 100 µM. It also gave a TGI [16] of 46.7 µM, a TGI [17] greater than 100 µM and a TGI [18] greater than 100 µM. The TGI [19] was greater than 100 µM, the TGI [20] was 58.7 µM and the TGI [21] was greater than 100 µM. For the same compound, the TGI [22] was greater than 100 µM, the TGI [23] was 96.4 µM and the TGI [24] was 59.2 µM. The TGI [25] was greater than 100 µM, the TGI [26] was greater than 100 µM and the TGI [27] was 75.4 µM. The TGI [28] was 67.7 µM, the TGI [29] was greater than 100 µM and the TGI [30] was 90.7 µM. The TGI [31] was 69.4 µM, the TGI [32] was greater than 100 µM and the TGI [33] was greater than 100 µM. For the same compound, the TGI [34] was 85.5 µM, the TGI [35] was greater than 100 µM and the TGI [36] was greater than 100 µM. For the same compound, the TGI [37] was greater than 100 µM, the TGI [38] was greater than 100 µM and the TGI [39] was greater than 100 µM. It also gave a TGI [40] of 31 µM, a TGI [41] of 76.4 µM and a TGI [42] of 67.1 µM. For the same compound, the TGI [43] was greater than 100 µM, the TGI [44] was greater than 100 µM and the TGI [45] was 57.8 µM. For the same compound, the TGI [46] was 36.9 µM, the TGI [47] was greater than 100 µM and the TGI [48] was greater than 100 µM. For the same compound, the TGI [49] was greater than 100 µM, the TGI [50] was greater than 100 µM and the TGI [51] was greater than 100 µM. The TGI [52] was greater than 100 µM, the TGI [53] was greater than 100 µM and the TGI [54] was greater than 100 µM. For the same compound, the TGI [55] was 68.2 µM.

Compound `Cc1ccc(NC(=O)/C(CC2N=c3c(ccc4c(O)c5ccccc5c(O)c34)=NC2O)=N/NC(C)(C)C)cc1` (stereo not given) has a TGI [1] of 17.5 µM, a TGI [3] greater than 100 µM and a TGI [4] of 38.6 µM. It also gave a TGI [5] greater than 100 µM, a TGI [6] of 25.6 µM and a TGI [7] of 7.26 µM. It also gave a TGI [8] greater than 100 µM, a TGI [9] of 39.5 µM and a TGI [10] greater than 100 µM. The TGI [11] was 78.5 µM, the TGI [12] was 29.6 µM and the TGI [13] was 44.5 µM. It also gave a TGI [14] of 28.1 µM, a TGI [15] of 43.9 µM and a TGI [16] of 56.5 µM. The TGI [17] was 54.8 µM, the TGI [18] was 43 µM and the TGI [19] was 83.5 µM. For the same compound, the TGI [21] was greater than 100 µM, the TGI [22] was 25.3 µM and the TGI [23] was 73.6 µM. It also gave a TGI [25] greater than 100 µM, a TGI [26] of 18.8 µM and a TGI [27] greater than 100 µM. The TGI [28] was greater than 100 µM, the TGI [29] was 22.6 µM and the TGI [31] was 83.9 µM. For the same compound, the TGI [32] was 26.4 µM, the TGI [33] was 97.2 µM and the TGI [34] was 20.2 µM. For the same compound, the TGI [35] was 51.7 µM, the TGI [36] was 45.1 µM and the TGI [37] was greater than 100 µM. The TGI [38] was 21.9 µM, the TGI [39] was 78.1 µM and the TGI [41] was 44.2 µM. The TGI [42] was 59 µM, the TGI [43] was greater than 100 µM and the TGI [56] was 25.9 µM. It also gave a TGI [44] of 81.9 µM, a TGI [45] of 39.3 µM and a TGI [46] of 24.2 µM. For the same compound, the TGI [47] was 33.6 µM, the TGI [57] was 44.8 µM and the TGI [48] was greater than 100 µM. It also gave a TGI [49] of 91.1 µM, a TGI [50] of 70.2 µM and a TGI [51] of 39.6 µM. It also gave a TGI [52] of 63.4 µM, a TGI [53] greater than 100 µM and a TGI [54] of 45.8 µM. It also gave a TGI [55] of 17.5 µM.

`O=C1c2ccccc2-c2nc(-c3ccncc3)cc3c2c1nc1ccccc13` gave a TGI [1] greater than 100 µM, a TGI [3] of 40.2 µM and a TGI [4] greater than 100 µM. The TGI [5] was greater than 100 µM, the TGI [6] was greater than 100 µM and the TGI [7] was greater than 100 µM. The TGI [8] was 62.3 µM, the TGI [9] was 32.3 µM and the TGI [10] was greater than 100 µM. The TGI [11] was 42.9 µM, the TGI [12] was greater than 100 µM and the TGI [13] was greater than 100 µM. It also gave a TGI [14] of 34.5 µM, a TGI [15] of 25.3 µM and a TGI [16] greater than 100 µM. It also gave a TGI [18] greater than 100 µM, a TGI [19] of 52.8 µM and a TGI [20] greater than 100 µM. It also gave a TGI [21] of 47.7 µM, a TGI [22] greater than 100 µM and a TGI [23] of 17 µM. For the same compound, the TGI [24] was 22.4 µM, the TGI [25] was greater than 100 µM and the TGI [26] was greater than 100 µM. The TGI [27] was 29.5 µM, the TGI [28] was 41.9 µM and the TGI [29] was 44.4 µM. For the same compound, the TGI [30] was greater than 100 µM, the TGI [31] was 41.3 µM and the TGI [32] was 90.9 µM. It also gave a TGI [33] of 30.7 µM, a TGI [34] greater than 100 µM and a TGI [35] of 12.8 µM. For the same compound, the TGI [36] was greater than 100 µM, the TGI [37] was greater than 100 µM and the TGI [38] was greater than 100 µM. It also gave a TGI [39] greater than 100 µM, a TGI [40] greater than 100 µM and a TGI [43] of 29.5 µM. The TGI [56] was greater than 100 µM, the TGI [44] was 26.3 µM and the TGI [45] was greater than 100 µM. It also gave a TGI [47] greater than 100 µM, a TGI [57] greater than 100 µM and a TGI [48] greater than 100 µM. It also gave a TGI [49] greater than 100 µM, a TGI [58] of 44.8 µM and a TGI [50] greater than 100 µM. It also gave a TGI [51] greater than 100 µM, a TGI [52] of 33.2 µM and a TGI [53] of 47.3 µM. For the same compound, the TGI [54] was 26.2 µM and the TGI [55] was greater than 100 µM.
